{
  "source": "patent US11285136B2",
  "about": "“Nanoparticles for controlled release of Sorafenib and Sorafenib derivatives” (DISTRETTO TECNOLOGICO SICILIA MICRO NANO SISTEMI S.C.A.R.L., priority 2017, dated 2022)",
  "key": {"[1]": {"tested_on": "HepG2", "assay": "Cell viability assay (CellTiter) on HepG2 cells", "format": "cell-based, human", "experimental": "(§1) The human hepatocellular carcinoma cell lines, HepG2 and Hep3B, were obtained from the American Type Culture Collection (ATCC). Cells were kept in 5% CO2 and grown in Roswell Park Memorial Institute (RPMI) medium (SIGMA, Milan, Italy), supplemented with 10% (v/v) fetal bovine serum (FBS) (Gibco, Life Technologies, Monza MB, Italy), 2 mM L-glutamine, 100 U/ml of penicillin-streptomycin and 1 mM of sodium pyruvate (SIGMA, Milan, Italy). Cell lines were regularly checked for possible mycoplasma contamination.\n(§2) The latter were resuspended in sterile conditions in sterile H2O, sonicated for 20 min in a water sonicator, and diluted with a complete RPMI volume (2×). At the end of the treatment, cell viability assays were performed using the OneSolution aqueous CellTiter kit (Promega Corporation, Madison, Wis., USA). The percentage of cell viability was calculated with reference to the absorbance measured in the control cells. The experiments were performed in triplicate and the values expressed as mean±SD of three independent experiments."}, "[2]": {"tested_on": "Hep3B", "assay": "Cell viability assay (CellTiter) on Hep3B cells", "format": "cell-based, human", "conditions": "72 hours", "experimental": "as §1, §2"}, "[3]": {"assay": "In vitro release of Sorafenib, dialysis tube method", "format": "physicochemical", "conditions": "SGF, SIF and PBS, 37° C.", "experimental": "During the experiment, the temperature was maintained at 37° C. in a thermostatic stirrer and with stirring of 100 rpm. At scheduled time intervals, 1 ml aliquots were taken from the external medium and replaced with an equal volume of fresh receiving medium. The released Sorafenib was quantified by HPLC analysis. Each in vitro release experiment was repeated in triplicate.\nA control experiment was also carried out to determine the dissolution of the free drug: an appropriate amount of Sorafenib was dispersed in the receiving medium, in order to have a final concentration of Sorafenib equal to that present in the nanoparticles, the dispersion was then introduced into a dialysis tube (cut-off 12000-14000 Da) which was immersed in a container containing the receiving medium. The amount of Sorafenib in the receiving medium was detected by HPLC analysis.\nThe amount of released Sorafenib was expressed as a percentage ratio between the released drug weight and the total amount of Sorafenib loaded into the nanoparticles. […] The cumulative release of Sorafenib in 24 hours was about 63% in SIF (panel B) and about 55% in PBS (panel C)."}, "[4]": {"tested_on": "Hep3B hepatocellular carcinoma", "assay": "Hep3B xenograft in nude mice, therapeutic efficacy", "format": "in vivo", "conditions": "10 mg/kg daily (6 days/week), 17 days, FIG. 5A", "experimental": "(§3) Male nude mice (fox1 nu/nu) of 4 weeks of life were purchased at Envigo (Udine, Italy) and left to acclimatize for 1 week. Hep3B cells (10×10^6 in 0.2 ml PBS), undergoing logarithmic growth, were inoculated in the right flank of the animals. When the tumors were palpable (about 300 mm^3), the mice were randomly divided into four groups of five animals each, with the various tumor volumes equally distributed between the four groups. Each group was treated for 17 days as indicated below.\nGroup 1: daily treatment (6 days/week) by intraperitoneal (IP) injection with 10 mg/kg of Sorafenib tosylate resuspended in DMSO and further diluted in a 25% solution of ethanol (DMSO-EtOH).\nGroup 2: carrier only (DMSO-EtOH).\nGroup 4: daily treatment (6 days/week) with 10 mg/kg of empty PBB nanoparticles resuspended in RPMI.\nTo quantify the Ki-67 cell proliferation marker expression, the ImmunoRatio® software (http://jvsmicroscope.uta.fi/immunoratio/) was used which, using a color deconvolution algorithm, calculates the percentage of positively marked area (area stained with diaminobenzidine) towards the total nuclear area. The hematoxylin stains were also acquired to analyze the neo-vascularization of the tumor, using the Leica DMR microscope equipped with a Leica DFC 320 digital camera."}, "[5]": {"assay": "Body weight and mobility of treated xenograft mice", "format": "in vivo, nude mice", "conditions": "10 mg/kg daily (6 days/week), 17 days, FIG. 5B", "experimental": "as §3"}, "[6]": {"conditions": "cited from earlier work"}, "[7]": {"conditions": "oral tablets, strong first-pass effect; cited from earlier work"}, "[8]": {"assay": "Biodistribution of Sorafenib in tissues of treated mice", "conditions": "compared with Sorafenib PBB, p<0.01, FIG. 6", "procedure": "The lyophilized nanoparticle samples were resuspended and sonicated as reported in cell viability assays. Tumor volumes and body weight were recorded twice a week as previously described (Cusimano et al., Cytotoxic activity of the novel small molecule AKT inhibitor SC66 in hepatocellular carcinoma cells. Oncotarget 2015, 6, 1707-1722). The mice were sacrificed by cervical dislocation when the tumor mass exceeded 10% of the body weight of the animals, or when the tumor mass appeared ulcerated or other morbid conditions were found, in accordance with the institutional guidelines and in accordance with the national law (Legislative Decree No. 26 4-3-2014) and international laws and policies (ECC Council Directive 86/609, OJ L358.1, Dec. 12, 1987). […] At the end of the trial, tumors, liver, kidneys, lungs and spleen were collected from each animal. Half of each tumor, or organ, was frozen in liquid nitrogen and stored at −80° C. for biodistribution analyzes, while the other half was fixated in formalin and used for immunohistochemistry analysis.\nSorafenib was extracted from the tissues of the treated animals following the procedure described in Craparo E F et al. Galactosylated polymeric carriers for liver targeting of Sorafenib. […]"}},
  "note": "“Also recorded” adds a separate entry of the source.",
  "data": [
    {"compound": "CNC(=O)c1cc(Oc2ccc(NC(=O)Nc3ccc(Cl)c(C(F)(F)F)c3)cc2)ccn1", "note": "[Sorafenib, 4-[4-[[4-chloro-3-(trifluoromethyl)phenyl]carbamoylamino]phenoxy]-N-methyl-pyridine-2-carboxamide]", "values": [
      {"measurement": "cell viability", "setting": "[1]; HepG2, 0.6-10 μM, 72 hours, FIG. 3", "result": "strongly decreased in a dose-dependent manner"},
      {"measurement": "IC50", "setting": "[1]; Homo sapiens, HepG2, 72 hours, mean ± DS", "result": "5.5 ± 1", "unit": "µM"},
      {"measurement": "cell viability", "setting": "[2]; 0.6-10 μM, FIG. 3", "result": "strongly decreased in a dose-dependent manner"},
      {"measurement": "IC50", "setting": "[2]; Homo sapiens, mean ± DS", "result": "3.5 ± 0.5", "unit": "µM"},
      {"measurement": "dissolution of free drug", "setting": "[3]", "result": "almost complete within two hours"},
      {"measurement": "tumor growth", "setting": "[4]", "result": "reduced tumor growth compared to the carrier alone, although this difference was not significant"},
      {"measurement": "body weight", "setting": "[5]", "result": "did not show a significant loss of body weight"},
      {"measurement": "solubility in water", "setting": "[6]", "result": "slightly soluble; also recorded: poorly soluble"},
      {"measurement": "bioavailability", "setting": "[7]", "result": "low"},
      {"measurement": "amount of Sorafenib detected in the lungs", "setting": "[8]", "result": "significantly higher"}
    ]}
  ]
}
